Results published in PubChem BioAssay AID1963426 (Molecular Pharmacology Branch, DTP, NCI, 2024).
Several values for one entry are separate records, joined by “and”; a condition that tells them apart may be missing. Equal entries are not always repeated. One block for each molecule: values may come before it.

Tested on: 186277-243-T-J2-PDC complex spheroid growth, % test/control
Assay: Anticancer human tumor 186277-243-T-J2-PDC patient-derived colon adenocarcinoma cell line growth inhibition [Asc]
Conditions: for viability, T/C: stronger effect = lower value
Method in brief: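 Tumor cells were grown as complex spheroids with human endothelial cells (HUVEC) and human mesenchymal stem cells as stroma. Agents were tested alone and in combination, in half-log steps down from the clinical Cmax, or from 10 microM where Cmax was unknown.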

[1] = curve of first compound, second compound 0.1 µM
[2] = curve of first compound, second compound 0.316 µM
[3] = curve of first compound, second compound 1 µM
[4] = curve of first compound, second compound 3.16 µM
[5] = curve of first compound, second compound 10 µM
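Also: spheroids exposed to agents for 7 days.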
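For viability, T/C in this document: 100% = DMSO vehicle control wells.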

IC50 [1]: > 3000 nM
IC50 [2]: > 3000 nM
IC50 [3]: > 3000 nM
IC50 [4]: > 3000 nM
IC50 [5]: > 3000 nM
SMILES: Cc1nc(N2CCC3(CC2)COC(C)C3N)c(CO)nc1Sc1ccnc(N)c1Cl (configuration not stated) + Cc1c(S(C)(=O)=O)c(-c2cc(F)cc(N3CCN(c4ccc(NS(=O)(=O)c5ccc(NC(CCN6CCC(C(=O)OCCCP(=O)(O)O)CC6)CSc6ccccc6)c(S(=O)(=O)C(F)(F)F)c5)cc4)CC3)c2)c(-c2ccc(Cl)cc2)n1C(C)C
viability, T/C (second compound 0.1 µM, first compound 0.00949 µM): 112%
viability, T/C (second compound 0.1 µM, first compound 0.03 µM): 99%
viability, T/C (second compound 0.1 µM, first compound 0.0949 µM): 106%
viability, T/C (second compound 0.1 µM, first compound 0.3 µM): 116%
viability, T/C (second compound 0.1 µM, first compound 0.949 µM): 98.1%
viability, T/C (second compound 0.1 µM, first compound 3 µM): 96.1%
viability, T/C (second compound 0.316 µM, first compound 0.00949 µM): 116%
viability, T/C (second compound 0.316 µM, first compound 0.03 µM): 94.9%
viability, T/C (second compound 0.316 µM, first compound 0.0949 µM): 112%
viability, T/C (second compound 0.316 µM, first compound 0.3 µM): 117%
viability, T/C (second compound 0.316 µM, first compound 0.949 µM): 107%
viability, T/C (second compound 0.316 µM, first compound 3 µM): 110%
viability, T/C (second compound 1 µM, first compound 0.00949 µM): 116%
viability, T/C (second compound 1 µM, first compound 0.03 µM): 97.7%
viability, T/C (second compound 1 µM, first compound 0.0949 µM): 114%
viability, T/C (second compound 1 µM, first compound 0.3 µM): 121%
viability, T/C (second compound 1 µM, first compound 0.949 µM): 126%
viability, T/C (second compound 1 µM, first compound 3 µM): 107%
viability, T/C (second compound 3.16 µM, first compound 0.00949 µM): 112%
viability, T/C (second compound 3.16 µM, first compound 0.03 µM): 104%
viability, T/C (second compound 3.16 µM, first compound 0.0949 µM): 111%
viability, T/C (second compound 3.16 µM, first compound 0.3 µM): 115%
viability, T/C (second compound 3.16 µM, first compound 0.949 µM): 111%
viability, T/C (second compound 3.16 µM, first compound 3 µM): 121%
viability, T/C (second compound 10 µM, first compound 0.00949 µM): 97.6%
viability, T/C (second compound 10 µM, first compound 0.03 µM): 96.3%
viability, T/C (second compound 10 µM, first compound 0.0949 µM): 115%
viability, T/C (second compound 10 µM, first compound 0.3 µM): 104%
viability, T/C (second compound 10 µM, first compound 0.949 µM): 100%
viability, T/C (second compound 10 µM, first compound 3 µM): 111%

IC50 (curve of first compound, second compound 0.03 µM): 25.8 nM
IC50 (curve of first compound, second compound 0.0949 µM): 18.9 nM
IC50 (curve of first compound, second compound 0.3 µM): 12.9 nM
IC50 (curve of first compound, second compound 0.949 µM): < 3.16 nM
IC50 (curve of first compound, second compound 3 µM): < 3.16 nM
SMILES: COc1c(OCCCN2CCOCC2)ccc2c3n(c(=NC(=O)c4cnc(N)nc4)nc12)CCN3 + CCN1C(C(=O)NC23CCC(C(=O)O)(CC2)CC3)C(c2cccc(Cl)c2F)C2(C(=O)Nc3cc(Cl)ccc32)C12CCCCC2
viability, T/C (second compound 0.03 µM, first compound 0.00316 µM): 101%
viability, T/C (second compound 0.03 µM, first compound 0.01 µM): 75.2%
viability, T/C (second compound 0.03 µM, first compound 0.0316 µM): 46.7%
viability, T/C (second compound 0.03 µM, first compound 0.1 µM): 18.1%
viability, T/C (second compound 0.03 µM, first compound 0.316 µM): 9.99%
viability, T/C (second compound 0.03 µM, first compound 1 µM): 6.65%
viability, T/C (second compound 0.0949 µM, first compound 0.00316 µM): 67.3%
viability, T/C (second compound 0.0949 µM, first compound 0.01 µM): 64%
viability, T/C (second compound 0.0949 µM, first compound 0.0316 µM): 38.8%
viability, T/C (second compound 0.0949 µM, first compound 0.1 µM): 9.15%
viability, T/C (second compound 0.0949 µM, first compound 0.316 µM): 4.16%
viability, T/C (second compound 0.0949 µM, first compound 1 µM): 2.21%
viability, T/C (second compound 0.3 µM, first compound 0.00316 µM): 58.1%
viability, T/C (second compound 0.3 µM, first compound 0.01 µM): 58.4%
viability, T/C (second compound 0.3 µM, first compound 0.0316 µM): 21.4%
viability, T/C (second compound 0.3 µM, first compound 0.1 µM): 2.26%
viability, T/C (second compound 0.3 µM, first compound 0.316 µM): 1.06%
viability, T/C (second compound 0.3 µM, first compound 1 µM): 0.54%
viability, T/C (second compound 0.949 µM, first compound 0.00316 µM): 49.5%
viability, T/C (second compound 0.949 µM, first compound 0.01 µM): 40.1%
viability, T/C (second compound 0.949 µM, first compound 0.0316 µM): 9.96%
viability, T/C (second compound 0.949 µM, first compound 0.1 µM): 0.92%
viability, T/C (second compound 0.949 µM, first compound 0.316 µM): 0.3%
viability, T/C (second compound 0.949 µM, first compound 1 µM): 0.28%
viability, T/C (second compound 3 µM, first compound 0.00316 µM): 30.3%
viability, T/C (second compound 3 µM, first compound 0.01 µM): 24.8%
viability, T/C (second compound 3 µM, first compound 0.0316 µM): 5.08%
viability, T/C (second compound 3 µM, first compound 0.1 µM): 0.52%
viability, T/C (second compound 3 µM, first compound 0.316 µM): 0.33%
viability, T/C (second compound 3 µM, first compound 1 µM): 0.31%

IC50 (curve of compound): 127 nM and 201 nM
SMILES: O=C(c1ccc(F)c(F)c1Nc1ccc(I)cc1F)N1CC(O)([C@@H]2CCCCN2)C1
viability, T/C (compound 0.00316 µM): 87.9% and 90.5% and 94.8%
viability, T/C (compound 0.01 µM): 88.2% and 90.8% and 78.7%
viability, T/C (compound 0.0316 µM): 97.7% and 88.7% and 90.1%
viability, T/C (compound 0.1 µM): 59.7% and 58.8% and 96.4%
viability, T/C (compound 0.316 µM): 14.8% and 15.4% and 23.9%
viability, T/C (compound 1 µM): 9.12% and 8.82% and 13.1%

IC50 [1]: 43.4 nM
IC50 [2]: 40.2 nM
IC50 [3]: 33.8 nM
IC50 [4]: 27.2 nM
IC50 [5]: 31.8 nM
SMILES: COc1c(OCCCN2CCOCC2)ccc2c3n(c(=NC(=O)c4cnc(N)nc4)nc12)CCN3 + Cc1c(S(C)(=O)=O)c(-c2cc(F)cc(N3CCN(c4ccc(NS(=O)(=O)c5ccc(NC(CCN6CCC(C(=O)OCCCP(=O)(O)O)CC6)CSc6ccccc6)c(S(=O)(=O)C(F)(F)F)c5)cc4)CC3)c2)c(-c2ccc(Cl)cc2)n1C(C)C
viability, T/C (second compound 0.1 µM, first compound 0.00316 µM): 107%
viability, T/C (second compound 0.1 µM, first compound 0.01 µM): 101%
viability, T/C (second compound 0.1 µM, first compound 0.0316 µM): 53.2%
viability, T/C (second compound 0.1 µM, first compound 0.1 µM): 31.5%
viability, T/C (second compound 0.1 µM, first compound 0.316 µM): 12.4%
viability, T/C (second compound 0.1 µM, first compound 1 µM): 8.11%
viability, T/C (second compound 0.316 µM, first compound 0.00316 µM): 98%
viability, T/C (second compound 0.316 µM, first compound 0.01 µM): 98.1%
viability, T/C (second compound 0.316 µM, first compound 0.0316 µM): 53.2%
viability, T/C (second compound 0.316 µM, first compound 0.1 µM): 24.9%
viability, T/C (second compound 0.316 µM, first compound 0.316 µM): 7.34%
viability, T/C (second compound 0.316 µM, first compound 1 µM): 4.21%
viability, T/C (second compound 1 µM, first compound 0.00316 µM): 95.9%
viability, T/C (second compound 1 µM, first compound 0.01 µM): 84.1%
viability, T/C (second compound 1 µM, first compound 0.0316 µM): 50.3%
viability, T/C (second compound 1 µM, first compound 0.1 µM): 21.9%
viability, T/C (second compound 1 µM, first compound 0.316 µM): 6.19%
viability, T/C (second compound 1 µM, first compound 1 µM): 2%
viability, T/C (second compound 3.16 µM, first compound 0.00316 µM): 91.7%
viability, T/C (second compound 3.16 µM, first compound 0.01 µM): 99.2%
viability, T/C (second compound 3.16 µM, first compound 0.0316 µM): 42.8%
viability, T/C (second compound 3.16 µM, first compound 0.1 µM): 15.7%
viability, T/C (second compound 3.16 µM, first compound 0.316 µM): 2.68%
viability, T/C (second compound 3.16 µM, first compound 1 µM): 1.29%
viability, T/C (second compound 10 µM, first compound 0.00316 µM): 82.4%
viability, T/C (second compound 10 µM, first compound 0.01 µM): 83.9%
viability, T/C (second compound 10 µM, first compound 0.0316 µM): 48%
viability, T/C (second compound 10 µM, first compound 0.1 µM): 15.5%
viability, T/C (second compound 10 µM, first compound 0.316 µM): 4.11%
viability, T/C (second compound 10 µM, first compound 1 µM): 1.39%
